Results reported in US9884043B2, “RORgammaT inhibitors” (Merck Sharp & Dohme Corp., priority 2011, dated 2018).
pEC50, pIC50: −log10 of the molar value.

Target: T1, 6His(GST)RORgamma-LBD (Homo sapiens, UniProt P51449)
T1 construct: the applied RORgamma-LBD contains a 6-His and GST tag; GST (N); made in house; host or cells: baculovirus-infected Sf-21 insect cells
T1 sequence (P51449 269-508 limits assumed): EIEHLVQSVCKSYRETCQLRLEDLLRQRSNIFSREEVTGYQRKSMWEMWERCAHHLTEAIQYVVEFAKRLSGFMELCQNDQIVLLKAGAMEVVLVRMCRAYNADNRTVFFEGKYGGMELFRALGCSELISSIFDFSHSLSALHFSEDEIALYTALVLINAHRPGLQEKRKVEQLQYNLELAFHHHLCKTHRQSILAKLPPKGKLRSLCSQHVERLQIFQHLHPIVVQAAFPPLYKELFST
Assay: TR-FRET assay (Protocol A), RORgamma-LBD / SRC1_2 co-activator peptide interaction
Format: biochemical
Conditions: SRC1_2 peptide 0.1 μM, RORgamma-LBD 10 nM, overnight incubation at 4° C.
Text: Activation of RORgammaT activity can be measured using e.g. biochemical TR-FRET assay. In such an assay, interaction of cofactor-derived peptides with human RORgammaT-Ligand Binding Domain (LBD) can be measured.
To identify novel antagonists of RORgammaT, an assay was developed which employs the interaction of RORgammaT with its co-activator peptide SRC1_2. […] The assay was run following three slightly different protocols, i.e. Protocol A, Protocol B, and Protocol C, which are described below.
TR-FRET Assay (Protocol A)
The 6His(GST)RORgamma-LBD was expressed and purified from baculovirus infected Sf-21 insect cells (Bac-to-BAC, Invitrogen) and purified using glutathione sepharose chromatography (GE healthcare). Biotin and His function as anchoring points for streptavidin-allophycocyanin (Strep-APC, Perkin Elmer, C130-100) and anti-His-Europium Cryptate (Perkin Elmer, AD0111), respectively. Since energy transfer between the streptavidin and His-coupled labels APC and europium cryptate can only take place when these labels are in close proximity, measurement of energy transfer in a mixture of biotinylated peptide, His-GR-LBD, streptavidin-APC and anti-His-Europium Cryptate will be indicative for RORy-LBD/peptide binding. […] Changes in peptide binding caused by dose-curves of compounds added to the reaction mixture (DMSO concentration 0.1%), can likewise be monitored.

Q: How did the pEC50 turn out when O=C(O)c1ccc(-c2nn(C(=O)c3c(Cl)cccc3Cl)c3ccccc23)cc1 [Example 1, 4-(1-(2,6-dichlorobenzoyl)-1H-indazol-3-yl)benzoic acid] was run?
A: Its pEC50 is 7.97.

Q: O=C(O)c1ccc(-c2nn(C(=O)c3c(Cl)cccc3Cl)c3ccc(F)cc23)cc1 [Example 2, 4-(1-(2,6-dichlorobenzoyl)-5-fluoro-1H-indazol-3-yl)benzoic acid] was tested. Which pEC50 did it give?
A: Its pEC50 is 6.61.

Target: T2, HIS-tagged RORγ-LBD (Homo sapiens, UniProt P51449)
T2 construct: HIS-tagged RORγ-LBD was recombinantly expressed in SF9 cells using a baculovirus expression system; made in house; host or cells: SF9 cells, baculovirus; crude lysate used
T2 sequence (P51449 269-508 limits assumed): T1 sequence (P51449 269-508 limits assumed)
Assay: TR-FRET assay (Protocol B), RORγ-LBD lysate / biotinylated SRC1-2 LXXLL peptide
Format: biochemical
Conditions: unpurified RORγ-LBD lysate ~10 nM, SRC1-2 peptide 450 nM

Q: O=C(O)c1cc(F)c(-c2nn(C(=O)c3c(Cl)cccc3C(F)(F)F)c3cccc(F)c23)cc1Cl [Example 24X, 2-chloro-4-(1-(2-chloro-6-(trifluoromethyl)-benzoyl)-4-fluoro-1H-indazol-3-yl)-5-fluorobenzoic acid] was tested. Which pIC50 did it give?
A: The pIC50 was 6.30 to 7.30.

Q: With COc1cc(-c2nn(C(=O)c3c(Cl)cccc3C(F)(F)F)c3cccc(F)c23)c(F)cc1C(=O)O [Example 24Y, 4-(1-(2-chloro-6-(trifluoromethyl)-benzoyl)-4-fluoro-1H-indazol-3-yl)-5-fluoro-2-methoxybenzoic acid] as the compound, how does the pIC50 read?
A: The pIC50 was greater than 7.30.

Q: How did the pIC50 turn out when O=C(O)c1cc(-c2nn(C(=O)c3c(Cl)cccc3C(F)(F)F)c3cccc(F)c23)ccc1O [Example 24Z, 5-(1-(2-chloro-6-(trifluoromethyl)-benzoyl)-4-fluoro-1H-indazol-3-yl)-2-hydroxybenzoic acid] was run?
A: Its pIC50 is less than 5.00.

Q: With O=C(O)c1ccc(-c2nn(C(=O)c3c(Cl)cccc3C(F)(F)F)c3cc(C(=O)NCCO)ccc23)cc1 [Example 25A, sodium 4-(1-(2-chloro-6-(trifluoromethyl)benzoyl)-6-(2-hydroxyethylcarbamoyl)-1H-indazol-3-yl)benzoate] as the compound, how does the pIC50 read?
A: Its pIC50 is greater than 7.30.

Q: CN(C)C(=O)c1ccc2c(-c3ccc(C(=O)O)cc3)nn(C(=O)c3c(Cl)cccc3C(F)(F)F)c2c1 [Example 25B, 4-(1-(2-chloro-6-(trifluoromethyl)benzoyl)-6-(dimethyl-carbamoyl)-1H-indazol-3-yl)benzoic acid] was tested. Which pIC50 did it give?
A: Its pIC50 is greater than 7.30.

Q: CN(C)C(=O)c1ccc2c(-c3ccc(C(=O)O)cc3F)nn(C(=O)c3c(Cl)cccc3C(F)(F)F)c2c1 [Example 25E, 4-(1-(2-chloro-6-(trifluoromethyl)benzoyl)-6-(dimethyl-carbamoyl)-1H-indazol-3-yl)-3-fluorobenzoic acid] was tested. Which pIC50 did it give?
A: Its pIC50 is greater than 7.30.

Q: How did the pIC50 turn out when O=C(NCCO)c1ccc2c(-c3ccc(C(=O)O)c(F)c3)nn(C(=O)c3c(Cl)cccc3C(F)(F)F)c2c1 [Example 25G, 4-(1-(2-chloro-6-(trifluoromethyl)benzoyl)-6-(2-hydroxyethyl-carbamoyl)-1H-indazol-3-yl)-2-fluorobenzoic acid] was run?
A: Its pIC50 is 6.30 to 7.30.

Q: How did the pIC50 turn out when O=C(O)c1ccc(-c2nn(C(=O)c3c(Cl)cccc3C(F)(F)F)c3cc(C(=O)NCCO)ccc23)c(F)c1 [Example 25H, 4-(1-(2-chloro-6-(trifluoromethyl)benzoyl)-6-(2-hydroxyethyl-carbamoyl)-1H-indazol-3-yl)-3-fluorobenzoic acid] was run?
A: Its pIC50 is greater than 7.30.

Q: With CN(C)C(=O)c1ccc2c(-c3ccc(C(=O)O)c(F)c3)nn(C(=O)c3c(Cl)cccc3C(F)(F)F)c2c1 [Example 25I, 4-(1-(2-chloro-6-(trifluoromethyl)benzoyl)-6-(dimethyl-carbamoyl)-1H-indazol-3-yl)-2-fluorobenzoic acid] as the compound, how does the pIC50 read?
A: The pIC50 was 6.30 to 7.30.

Q: How did the pIC50 turn out when CN(C)C(=O)c1ccc2c(-c3ccc(C(=O)O)cc3Cl)nn(C(=O)c3c(Cl)cccc3C(F)(F)F)c2c1 [Example 25J, 3-chloro-4-(1-(2-chloro-6-(trifluoromethyl)benzoyl)-6-(dimethyl-carbamoyl)-1H-indazol-3-yl)benzoic acid] was run?
A: The pIC50 was greater than 7.30.

Q: With O=C(O)c1ccc(-c2nn(C(=O)c3c(Cl)cccc3C(F)(F)F)c3cc(C(=O)NCCO)ccc23)c(Cl)c1 [Example 25K, 3-chloro-4-(1-(2-chloro-6-(trifluoromethyl)benzoyl)-6-(2-hydroxyethyl-carbamoyl)-1H-indazol-3-yl)benzoic acid] as the compound, how does the pIC50 read?
A: The pIC50 was greater than 7.30.

Q: With O=C(O)c1ccc(-c2nn(C(=O)c3c(Cl)cccc3C(F)(F)F)c3cc(C(=O)NCCCO)ccc23)cc1 [Example 25L, 4-(1-(2-chloro-6-(trifluoromethyl)benzoyl)-6-(3-hydroxypropyl-carbamoyl)-1H-indazol-3-yl)benzoic acid] as the compound, how does the pIC50 read?
A: Its pIC50 is greater than 7.30.

Q: How did the pIC50 turn out when O=C(O)c1ccc(-c2nn(C(=O)c3c(Cl)cccc3C(F)(F)F)c3cc(C(=O)NCCCO)ccc23)c(F)c1 [Example 25M, 4-(1-(2-chloro-6-(trifluoromethyl)benzoyl)-6-(3-hydroxypropyl-carbamoyl)-1H-indazol-3-yl)-3-fluorobenzoic acid] was run?
A: Its pIC50 is greater than 7.30.

Q: CC(O)CNC(=O)c1ccc2c(-c3ccc(C(=O)O)cc3)nn(C(=O)c3c(Cl)cccc3C(F)(F)F)c2c1 (centres unmarked) [Example 25O, 4-(1-(2-chloro-6-(trifluoromethyl)benzoyl)-6-(2-hydroxypropyl-carbamoyl)-1H-indazol-3-yl)benzoic acid] was tested. Which pIC50 did it give?
A: The pIC50 was greater than 7.30.

Q: O=C(O)c1ccc(-c2nn(C(=O)c3c(Cl)cccc3C(F)(F)F)c3cc(C(=O)NCCCCO)ccc23)cc1 [Example 25P, 4-(1-(2-chloro-6-(trifluoromethyl)benzoyl)-6-(4-hydroxybutyl-carbamoyl)-1H-indazol-3-yl)benzoic acid] was tested. Which pIC50 did it give?
A: The pIC50 was greater than 7.30.

Q: CN(CCO)C(=O)c1ccc2c(-c3ccc(C(=O)O)cc3)nn(C(=O)c3c(Cl)cccc3C(F)(F)F)c2c1 [Example 25Q, 4-(1-(2-chloro-6-(trifluoromethyl)benzoyl)-6-((2-hydroxyethyl) (methyl)carbamoyl)-1H-indazol-3-yl)benzoic acid] was tested. Which pIC50 did it give?
A: The pIC50 was greater than 7.30.

Q: CN(CCO)C(=O)c1ccc2c(-c3ccc(C(=O)O)cc3F)nn(C(=O)c3c(Cl)cccc3C(F)(F)F)c2c1 [Example 25R, 4-(1-(2-chloro-6-(trifluoromethyl)benzoyl)-6-((2-hydroxyethyl) (methyl)carbamoyl)-1H-indazol-3-yl)-3-fluorobenzoic acid] was tested. Which pIC50 did it give?
A: The pIC50 was greater than 7.30.

Q: With CC(=O)Oc1cc(-c2nn(C(=O)c3c(Cl)cccc3C(F)(F)F)c3cccc(F)c23)ccc1C(=O)O [Example 26B, 2-acetoxy-4-(1-(2-chloro-6-(trifluoromethyl)benzoyl)-4-fluoro-1H-indazol-3-yl)benzoic acid] as the compound, how does the pIC50 read?
A: Its pIC50 is greater than 7.30.

Q: With O=C(O)c1c(O)cc(-c2nn(C(=O)c3c(Cl)cccc3C(F)(F)F)c3cccc(F)c23)cc1F [Example 26D, 4-(1-(2-chloro-6-(trifluoromethyl)benzoyl)-4-fluoro-1H-indazol-3-yl)-2-fluoro-6-hydroxybenzoic acid] as the compound, how does the pIC50 read?
A: Its pIC50 is greater than 7.30.

Q: How did the pIC50 turn out when O=C(O)c1ccc(-c2nn(C(=O)c3c(Cl)cccc3C(F)(F)F)c3cccc(F)c23)c(O)c1 [Example 26E, 4-(1-(2-chloro-6-(trifluoromethyl)benzoyl)-4-fluoro-1H-indazol-3-yl)-3-hydroxybenzoic acid] was run?
A: Its pIC50 is greater than 7.30.

Q: O=C(O)c1ccc(-c2nn(C(=O)c3c(Cl)cccc3C(F)(F)F)c3cccnc23)cc1O [Example 26H, 4-(1-(2-chloro-6-(trifluoromethyl)benzoyl)-1H-pyrazolo[4,3-b]pyridin-3-yl)-2-hydroxybenzoic acid] was tested. Which pIC50 did it give?
A: The pIC50 was greater than 7.30.

Q: How did the pIC50 turn out when CC(=O)Oc1cc(-c2nn(C(=O)c3c(Cl)cccc3C(F)(F)F)c3cccnc23)ccc1C(=O)O [Example 26I, 2-acetoxy-4-(1-(2-chloro-6-(trifluoromethyl)benzoyl)-1H-pyrazolo[4,3-b]pyridin-3-yl)benzoic acid] was run?
A: Its pIC50 is greater than 7.30.

Q: With CN(C)C(=O)c1ccc2c(-c3ccc(C(=O)O)c(O)c3)nn(C(=O)c3c(Cl)cccc3C(F)(F)F)c2c1 [Example 26J, 4-(1-(2-chloro-6-(trifluoromethyl)benzoyl)-6-(dimethyl-carbamoyl)-1H-indazol-3-yl)-2-hydroxybenzoic acid] as the compound, how does the pIC50 read?
A: Its pIC50 is greater than 7.30.

Q: How did the pIC50 turn out when NCc1ccc2c(-c3ccc(C(=O)O)cc3)nn(C(=O)c3c(Cl)cccc3C(F)(F)F)c2c1 [Example 27A, 4-(6-(aminomethyl)-1-(2-chloro-6-(trifluoromethyl)benzoyl)-1H-indazol-3-yl)benzoic acid] was run?
A: The pIC50 was greater than 7.30.

Q: With NCc1ccc2c(-c3ccc(C(=O)O)cc3F)nn(C(=O)c3c(Cl)cccc3C(F)(F)F)c2c1 [Example 27B, 4-(6-(aminomethyl)-1-(2-chloro-6-(trifluoromethyl)benzoyl)-1H-indazol-3-yl)-3-fluorobenzoic acid] as the compound, how does the pIC50 read?
A: Its pIC50 is greater than 7.30.

Q: O=C(O)c1ccc(-c2nn(C(=O)c3c(Cl)cccc3C(F)(F)F)c3ccccc23)cc1C(F)F [Example 28, 4-(1-(2-chloro-6-(trifluoromethyl)benzoyl)-1H-indazol-3-yl)-2-(difluoromethyl)benzoic acid] was tested. Which pIC50 did it give?
A: Its pIC50 is greater than 7.30.

Q: How did the pIC50 turn out when N#Cc1ccc2c(-c3ccc(C(=O)O)cc3)nn(C(=O)c3c(Cl)cccc3C(F)(F)F)c2c1 [Example 29, 4-(1-(2-chloro-6-(trifluoromethyl)benzoyl)-6-cyano-1H-indazol-3-yl)benzoic acid] was run?
A: Its pIC50 is 6.30 to 7.30.
